Experimental data reported in ChEMBL document CHEMBL5316372, “NMR Fingerprints of Formyl Phloroglucinol Meroterpenoids and Their Application to the Investigation of Eucalyptus gittinsii subsp. gittinsii” (J Nat Prod, 2023).
Converted amounts (≈) assume the structure as drawn.

Assays:
Staphylococcus aureus [1] = assay: Antibacterial activity against Methicillin-resistant Staphylococcus aureus ATCC 43300 incubated for 18 hrs by Luria-Bertani broth based plate reader analysis; format: functional
Plasmodium falciparum = assay: Antiplasmodial activity against Plasmodium falciparum 3D7 incubated for 72 hrs by DAPI staining based analysis; format: functional, organism-based; settings: 3D7, 72 h
HEK293 [2] = assay: Cytotoxicity against HEK293 cells assessed as reduction in cell viability at 40 uM incubated for 72 hrs by resazurin based fluorescence plate reader analysis; format: toxicity; settings: human, hek293, 72 h
Staphylococcus aureus [3] = assay: Antibacterial activity against Methicillin-sensitive Staphylococcus aureus ATCC 25923 incubated for 18 hrs by Luria-Bertani broth based plate reader analysis; format: functional
[4] = Cytotoxicity against HEK293 cells assessed as inhibition of cell growth at 5 uM incubated for 72 hrs by resazurin based fluorescence plate reader analysis relative to control; format: toxicity; settings: human
HEK293 [5] = assay: Cytotoxicity against HEK293 cells assessed as reduction in cell viability at 2.5 uM incubated for 72 hrs by resazurin based fluorescence plate reader analysis; format: toxicity; settings: human, hek293, 72 h
[6] = Cytotoxicity against HEK293 cells assessed as inhibition of cell growth at 40 uM incubated for 72 hrs by resazurin based fluorescence plate reader analysis relative to control; format: toxicity; settings: human

Structure (SMILES)	MIC50 (Staphylococcus aureus [1]) [µM]	IC50 (Plasmodium falciparum) [nM]	Activity (HEK293 [2])	MIC50 (Staphylococcus aureus [3]) [µM]	inhibition at 72 h, 5 µM [4] [%]	Activity (HEK293 [5])	inhibition at 72 h, 40 µM [6] [%]
C/C1=C\[C@@H]2[C@H](CC[C@@]3(C)Oc4c(c(O)c(C=O)c(O)c4C(=O)CC(C)C)C[C@@H]3CC1)C2(C)C	75 (≈ 34.1 µg/mL)	15700	Non-Toxic	75 (≈ 34.1 µg/mL)			
COc1ccc(C[C@H](N)C(=O)N[C@H]2[C@@H](O)[C@H](n3cnc4c(N(C)C)ncnc43)O[C@@H]2CO)cc1 [PUROMYCIN]		80			0.89		
C[C@H]1[C@H](OC(=O)CCC(=O)O)O[C@@H]2O[C@@]3(C)CC[C@H]4[C@H](C)CC[C@@H]1[C@@]24OO3 [ARTESUNATE]		3				Non-Toxic	
CCc1nc(N)nc(N)c1-c1ccc(Cl)cc1 [PYRIMETHAMINE]		20					33.4
C=C(C)[C@@H]1C=C2[C@@H](C)CC[C@@H](Cc3c(O)c(C=O)c(O)c(C(=O)CC(C)C)c3O)[C@]2(C)CC1	4.7 (≈ 2.14 µg/mL)	1300		4.7 (≈ 2.14 µg/mL)			> 85
CC(=O)O[C@H]1C[C@@]2(C)[C@@H](C[C@@H](O)[C@H]3[C@@]4(C)CC[C@@H](O)[C@@H](C)[C@@H]4CC[C@@]32C)/C1=C(\CCC=C(C)C)C(=O)O [FUSIDIC ACID]	< 0.12			< 0.12			
C/C1=C\[C@H]2[C@@H](CC[C@]3(C)Oc4c(C=O)c(O)c(C(=O)CC(C)C)c(O)c4C[C@H]3CC1)C2(C)C	> 75	23600	Non-Toxic	> 75			
